Test results as given in patent publication US20220347175A1, “PYRIDAZINONE DERIVATIVE” (Sumitomo Dainippon Pharma Co., Ltd., priority 2018, published 2022).

Experiments:
human Nav1.1 = target: T1, human Nav1.1 (Homo sapiens, UniProt P35498); assay: Amplification of Nav1.1-derived voltage-dependent sodium current (Nav1.1 current), cell line stably expressing human Nav1.1, automated patch clamp; format: cell-based
T1 construct: host or cells: HEK293
Method in brief: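 Amplification rate (%) is 100 × post-compound/pre-compound Nav1.1 peak current or AUC, minus 100. Ramp-evoked sodium currents were recorded by automated patch clamp in a human Nav1.1 HEK293 stable line, restricted to cells exceeding 500 pA, with compounds added in extracellular solution containing 1% DMSO.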

human Nav1.5 = target: T2, human Nav1.5 (Homo sapiens, UniProt Q14524); assay: Amplification of Nav1.5-derived voltage-dependent sodium current (Nav1.5 current), cell line stably expressing human Nav1.5, automated patch clamp; format: cell-based
T2 construct: expressed in transfected cells; host or cells: CHO-K1 (T-REx System, ThermoFisher Scientific)
T2 sequence (Q14524 1-2015 isoform Q14524-2): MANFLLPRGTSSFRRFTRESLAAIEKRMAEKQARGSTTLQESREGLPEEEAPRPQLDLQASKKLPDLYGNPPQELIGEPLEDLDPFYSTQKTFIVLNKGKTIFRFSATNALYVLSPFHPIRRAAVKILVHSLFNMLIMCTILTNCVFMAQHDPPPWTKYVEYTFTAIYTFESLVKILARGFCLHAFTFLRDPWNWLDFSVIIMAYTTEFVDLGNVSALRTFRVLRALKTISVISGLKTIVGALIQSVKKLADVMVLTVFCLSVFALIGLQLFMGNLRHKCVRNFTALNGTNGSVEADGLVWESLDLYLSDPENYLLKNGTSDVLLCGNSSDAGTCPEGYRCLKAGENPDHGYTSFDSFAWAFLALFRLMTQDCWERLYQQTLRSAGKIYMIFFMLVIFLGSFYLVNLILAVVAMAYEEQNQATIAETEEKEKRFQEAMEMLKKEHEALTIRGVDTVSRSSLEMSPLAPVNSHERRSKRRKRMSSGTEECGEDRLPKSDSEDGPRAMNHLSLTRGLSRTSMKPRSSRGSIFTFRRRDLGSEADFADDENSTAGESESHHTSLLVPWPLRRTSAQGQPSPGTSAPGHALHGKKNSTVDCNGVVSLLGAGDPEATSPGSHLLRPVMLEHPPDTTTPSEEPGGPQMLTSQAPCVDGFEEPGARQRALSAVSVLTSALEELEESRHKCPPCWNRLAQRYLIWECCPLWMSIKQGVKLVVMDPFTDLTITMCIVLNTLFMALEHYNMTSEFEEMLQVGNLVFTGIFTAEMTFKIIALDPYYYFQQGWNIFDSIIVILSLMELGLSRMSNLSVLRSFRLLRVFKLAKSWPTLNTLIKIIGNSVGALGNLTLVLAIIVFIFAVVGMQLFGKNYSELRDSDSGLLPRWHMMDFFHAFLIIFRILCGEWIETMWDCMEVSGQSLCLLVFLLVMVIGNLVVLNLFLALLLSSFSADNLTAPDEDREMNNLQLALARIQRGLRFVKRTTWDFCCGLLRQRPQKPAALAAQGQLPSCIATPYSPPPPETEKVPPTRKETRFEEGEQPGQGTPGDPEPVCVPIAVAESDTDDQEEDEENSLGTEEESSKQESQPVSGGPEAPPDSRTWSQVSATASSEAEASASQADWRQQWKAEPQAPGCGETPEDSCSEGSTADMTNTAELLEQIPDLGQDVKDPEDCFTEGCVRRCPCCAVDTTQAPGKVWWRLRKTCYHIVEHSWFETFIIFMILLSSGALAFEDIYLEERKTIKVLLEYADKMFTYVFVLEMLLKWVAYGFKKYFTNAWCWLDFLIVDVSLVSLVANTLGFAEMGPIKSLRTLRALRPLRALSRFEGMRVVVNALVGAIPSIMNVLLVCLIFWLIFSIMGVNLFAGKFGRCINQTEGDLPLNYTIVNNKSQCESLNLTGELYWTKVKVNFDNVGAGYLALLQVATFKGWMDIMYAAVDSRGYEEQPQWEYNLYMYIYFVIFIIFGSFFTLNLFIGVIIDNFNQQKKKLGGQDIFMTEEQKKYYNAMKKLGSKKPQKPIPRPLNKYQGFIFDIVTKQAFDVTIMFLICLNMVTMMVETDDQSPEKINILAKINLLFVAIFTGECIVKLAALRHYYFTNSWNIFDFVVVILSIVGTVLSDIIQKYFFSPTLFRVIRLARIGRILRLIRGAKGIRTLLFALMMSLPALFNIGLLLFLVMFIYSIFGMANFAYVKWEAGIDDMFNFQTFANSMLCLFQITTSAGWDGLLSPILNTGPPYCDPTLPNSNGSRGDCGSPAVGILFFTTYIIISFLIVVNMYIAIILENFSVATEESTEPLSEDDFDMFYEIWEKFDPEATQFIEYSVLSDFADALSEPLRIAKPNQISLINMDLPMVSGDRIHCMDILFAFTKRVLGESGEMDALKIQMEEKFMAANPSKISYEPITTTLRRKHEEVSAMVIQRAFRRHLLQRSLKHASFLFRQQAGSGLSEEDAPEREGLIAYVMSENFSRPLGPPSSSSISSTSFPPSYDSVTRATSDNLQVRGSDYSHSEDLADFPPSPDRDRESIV

[1] = 10 μmol/L compound, change of the area under the curve of Nav1.1 current (Test Result 1), read-out: Nav1.1 current amplification rate (%)
[2] = 10 μmol/L compound, change of the area under the curve of Nav1.5 current (Test Result 1), read-out: Nav1.5 current amplification rate (%)
[3] = 10 μmol/L compound, change of the area under the curve of Nav1.1 current (Test Result 1)
[4] = 10 μmol/L compound, change of the area under the curve of Nav1.5 current (Test Result 1)
[5] = compound 1 μmol/L, HEK293 stably expressing human Nav1.1
[6] = compound 1 μmol/L, CHO-K1 stably expressing human Nav1.5
[7] = compound 3 μmol/L, HEK293 stably expressing human Nav1.1
[8] = compound 3 μmol/L, CHO-K1 stably expressing human Nav1.5

Row | SMILES | activation at 10 µM (human Nav1.1; [1]) | activation at 10 µM (human Nav1.5; [2]) | Nav1.1 current amplification rate (%) (human Nav1.1; [3]) | Nav1.5 current amplification rate (%) (human Nav1.5; [4]) | further results
1 | O=C(Cn1nc(N2CCCC3(CCC3)C2)ccc1=O)Nc1cccc(-c2nccs2)c1 [Example 134] | 44% | -5% | – | – | –
2 | O=C(Cn1nc(C2=CCC(F)(F)CC2)ccc1=O)Nc1ccc(C(F)(F)F)nc1 [Example 103] | 58% | 13% | – | – | –
3 | O=C(Cn1nc(C2=CCC(F)(F)CC2)ccc1=O)N1CCN(c2cncc(F)c2)CC1 [Example 489] | – | – | 29% | 0% | –
4 | Cc1nc2cc(NC(=O)Cn3nc(N4CCC(C)CC4)ccc3=O)ccc2s1 [Example 88] | – | – | 183% | 31% | –
5 | COc1cc(=O)n(CC(=O)N2CCN(c3cncc(F)c3)CC2)nc1C1=CCC(C(F)(F)F)CC1 (racemic) [Example 486] | – | – | 148% | 8% | –
6 | CC1CC=C(c2ccc(=O)n(CC(=O)N3CCc4c(CN(C)C5COC5)cccc43)n2)CC1 (racemic) [Example 276] | – | – | – | – | Nav1.1 current amplification rate (%) (human Nav1.1; [5]): 207%; Nav1.5 current amplification rate (%) (human Nav1.5; [6]): 47%
7 | N#Cc1ccc(NC(=O)Cn2nc(C3=CCC(F)(F)CC3)ccc2=O)cn1 [Example 109] | 57% | 23% | – | – | –
8 | COc1cnc(C2=CCN(C(=O)Cn3nc(C4=CCC(C)CC4)ccc3=O)CC2)cn1 (racemic) [Example 399] | – | – | 102% | 11% | –
9 | CC1CC=C(c2ccc(=O)n(CC(=O)N3CCc4c(C5CN(CCO)C5)cccc43)n2)CC1 (racemic) [Example 303] | – | – | – | – | Nav1.1 current amplification rate (%) (human Nav1.1; [7]): 67%; Nav1.5 current amplification rate (%) (human Nav1.5; [8]): 11%
10 | CN(C)c1cc(N2CCC3(CCCC3)C2)nn(CC(=O)Nc2ccc3ocnc3c2)c1=O [Example 196] | 225% | 18% | – | – | –
11 | O=C(Cn1nc(N2CCC3(CCC3)CC2)ccc1=O)Nc1ccc2c(c1)COC2 [Example 190] | 100% | 12% | – | – | –
12 | CC1(C)CC=C(c2ccc(=O)n(CC(=O)N3CCc4c(C5CN(C6COC6)C5)cccc43)n2)CC1 [Example 438] | – | – | – | – | Nav1.1 current amplification rate (%) (human Nav1.1; [7]): 404%; Nav1.5 current amplification rate (%) (human Nav1.5; [8]): 25%
13 | CC1CC=C(c2ccc(=O)n(CC(=O)N3CCc4c(N5CCOCC5)cccc43)n2)CC1 (racemic) [Example 245] | – | – | – | – | Nav1.1 current amplification rate (%) (human Nav1.1; [5]): 393%; Nav1.5 current amplification rate (%) (human Nav1.5; [6]): 32%
14 | CC1CCN(c2ccc(=O)n(CC(=O)Nc3ccc4ocnc4c3)n2)CC1 [Example 50, N-(1,3-benzooxazol-5-yl)-2-[3-(4-methylpiperidin-1-yl)-6-oxopyridazin-1(6H)-yl]acetamide] | 155% | 4% | – | – | –
15 | COc1cc(=O)n(CC(=O)N2CCc3c(N4CCOCC4)cccc32)nc1C1=CCC(C)(C)CC1 [Example 470] | – | – | 522% | 131% | –
16 | COC1CN(Cc2nc3cc(NC(=O)Cn4nc(C5=CCC(C)CC5)ccc4=O)ccc3o2)C1 (racemic) [Example 332] | – | – | – | – | Nav1.1 current amplification rate (%) (human Nav1.1; [7]): 15%; Nav1.5 current amplification rate (%) (human Nav1.5; [8]): 9%
17 | CC1(C)CN(c2ccc(=O)n(CC(=O)Nc3ccc4ocnc4c3)n2)CCC12CC2(F)F (centres unmarked) [Example 214] | 64% | -1% | – | – | –

Row | SMILES | activation at 10 µM (human Nav1.1; [1]) | activation at 10 µM (human Nav1.5; [2]) | Nav1.1 current amplification rate (%) (human Nav1.1; [3]) | Nav1.5 current amplification rate (%) (human Nav1.5; [4]) | further results
18 | CC1CC=C(c2ccc(=O)n(CC(=O)Nc3ccn4ccnc4c3)n2)CC1 (centres unmarked) [Example 532] | 239% | 47% | – | – | –
19 | N#Cc1ccc(NC(=O)Cn2nc(N3CCC4(CCC4)CC3)ccc2=O)cn1 [Example 124] | 205% | 70% | – | – | –
20 | C[C@H]1CC=C(c2ccc(=O)n(CC(=O)Nc3ccn4ncnc4c3)n2)CC1 [Example 538, 2-{3-[(4R)-4-methylcyclohex-1-en-1-yl]-6-oxopyridazin-1(6H)-yl}-N-([1,2,4]triazolo[1,5-a]pyridin-7-yl)acetamide] | – | – | – | – | activation at 1 µM (human Nav1.1; compound 1 μmol/L, HEK293 stably expressing human Nav1.1, read-out: Nav1.1 current amplification rate (%)): 135%; activation at 1 µM (human Nav1.5; compound 1 μmol/L, CHO-K1 stably expressing human Nav1.5, read-out: Nav1.5 current amplification rate (%)): 45%
21 | CC1CCN(c2ccc(=O)n(CC(=O)Nc3ccc4scnc4c3)n2)CC1 [Example 87] | – | – | 255% | 22% | –
22 | O=C(Cn1nc(N2CCC3(CCCC3)C2)ccc1=O)Nc1ccn2ccnc2c1 [Example 167] | 129% | 21% | – | – | –
23 | CC1CCC(c2ccc(=O)n(CC(=O)N3CCc4c(N5CCOCC5)cccc43)n2)CC1 (mixture of isomers) [Example 472] | – | – | 387% | 56% | –
24 | O=C(Cn1nc(N2CCC3(CCCC3)C2)ccc1=O)Nc1cccc(-n2ccnc2)c1 [Example 123] | 246% | 30% | – | – | –
25 | CC1CC=C(c2ccc(=O)n(CC(=O)Nc3ccn4nncc4c3)n2)CC1 (racemic) [Example 342] | – | – | – | – | Nav1.1 current amplification rate (%) (human Nav1.1; [5]): 109%; Nav1.5 current amplification rate (%) (human Nav1.5; [6]): 52%
26 | O=C(Cn1nc(N2CCC3(CCCC3)C2)cc(N2CCCC2)c1=O)Nc1ccc2ocnc2c1 [Example 206] | 154% | 33% | – | – | –
27 | O=C(Cn1nc(N2CCC3(CCC3)CC2)ccc1=O)Nc1ccn2ccnc2c1 [Example 168] | 205% | 23% | – | – | –
28 | CC1CC=C(c2ccc(=O)n(CC(=O)N3CC=C(c4cccnc4)CC3)n2)CC1 (centres unmarked) [Example 402] | – | – | 323% | 21% | –
29 | CC1CCN(c2ccc(=O)n(CC(=O)Nc3cccc(-n4ccnc4)c3)n2)CC1 [Example 67] | – | – | 177% | 18% | –
30 | CC1CC=C(c2ccc(=O)n(CC(=O)N3CCc4c(-c5cccnc5)cccc43)n2)CC1 (racemic) [Example 248] | – | – | – | – | Nav1.1 current amplification rate (%) (human Nav1.1; [7]): 392%; Nav1.5 current amplification rate (%) (human Nav1.5; [8]): 44%
31 | COc1cc(-c2cc(Cl)cs2)nn(CC(=O)Nc2ccn3ccnc3c2)c1=O [Example 466] | – | – | 233% | 38% | –
32 | CC1CC=C(c2ccc(=O)n(CC(=O)Nc3ccn4ccnc4n3)n2)CC1 (racemic) [Example 242] | – | – | 97% | 10% | –
33 | CC1CC=C(c2ccc(=O)n(CC(=O)Nc3ccn4ncnc4c3)n2)CC1 (racemic) [Example 330] | – | – | – | – | Nav1.1 current amplification rate (%) (human Nav1.1; [5]): 191%; Nav1.5 current amplification rate (%) (human Nav1.5; [6]): 47%
34 | COc1ncc(C2=CCN(C(=O)Cn3nc(C4=CCC(C(F)(F)F)CC4)ccc3=O)CC2)cn1 (centres unmarked) [Example 510] | – | – | – | – | activation at 3 µM (human Nav1.1; compound 3 μmol/L, HEK293 stably expressing human Nav1.1, read-out: Nav1.1 current amplification rate (%)): 50%; activation at 3 µM (human Nav1.5; compound 3 μmol/L, CHO-K1 stably expressing human Nav1.5, read-out: Nav1.5 current amplification rate (%)): 7%
